Assay results as given in the NIST ThermoML archive (doi:10.1021/je0501078).
± gives the expanded uncertainty stated by the source.

Experiment: molar heat capacity at constant pressure
Settings: 101.33 kPa

SMILES: O=C1CCCCC1C1(O)CCCCC1 (centres undefined) [1'-hydroxy-[1,1'-bicyclohexyl]-2-one]
- molar heat capacity at constant pressure (5 K, Crystal): 0.496 ± 0.047 J/K/mol
- molar heat capacity at constant pressure (10 K, Crystal): 3.909 ± 0.13 J/K/mol
- molar heat capacity at constant pressure (15 K, Crystal): 10.08 ± 0.24 J/K/mol
- molar heat capacity at constant pressure (20 K, Crystal): 17.48 ± 0.33 J/K/mol
- molar heat capacity at constant pressure (25 K, Crystal): 25.17 ± 0.38 J/K/mol
- molar heat capacity at constant pressure (30 K, Crystal): 32.48 ± 0.32 J/K/mol
- molar heat capacity at constant pressure (35 K, Crystal): 39.18 ± 0.37 J/K/mol
- molar heat capacity at constant pressure (40 K, Crystal): 45.5 ± 0.42 J/K/mol
- molar heat capacity at constant pressure (45 K, Crystal): 51.25 ± 0.45 J/K/mol
- molar heat capacity at constant pressure (50 K, Crystal): 56.58 ± 0.49 J/K/mol
- molar heat capacity at constant pressure (60 K, Crystal): 66.47 ± 0.56 J/K/mol
- molar heat capacity at constant pressure (70 K, Crystal): 75.55 ± 0.62 J/K/mol
- molar heat capacity at constant pressure (80 K, Crystal): 84.14 ± 0.67 J/K/mol
- molar heat capacity at constant pressure (90 K, Crystal): 92.37 ± 0.92 J/K/mol
- molar heat capacity at constant pressure (100 K, Crystal): 100.7 ± 0.92 J/K/mol
- molar heat capacity at constant pressure (110 K, Crystal): 108.6 ± 1 J/K/mol
- molar heat capacity at constant pressure (120 K, Crystal): 116.4 ± 1 J/K/mol
- molar heat capacity at constant pressure (130 K, Crystal): 124.2 ± 1.1 J/K/mol
- molar heat capacity at constant pressure (140 K, Crystal): 132 ± 1.1 J/K/mol
- molar heat capacity at constant pressure (150 K, Crystal): 139.8 ± 1.1 J/K/mol
- molar heat capacity at constant pressure (160 K, Crystal): 147.7 ± 1.2 J/K/mol
- molar heat capacity at constant pressure (170 K, Crystal): 155.8 ± 1.2 J/K/mol
- molar heat capacity at constant pressure (180 K, Crystal): 163.9 ± 1.2 J/K/mol
- molar heat capacity at constant pressure (190 K, Crystal): 171.9 ± 1.2 J/K/mol
- molar heat capacity at constant pressure (200 K, Crystal): 180 ± 1.3 J/K/mol
- molar heat capacity at constant pressure (210 K, Crystal): 188.2 ± 1.3 J/K/mol
- molar heat capacity at constant pressure (220 K, Crystal): 196.6 ± 1.3 J/K/mol
- molar heat capacity at constant pressure (230 K, Crystal): 205.1 ± 1.4 J/K/mol
- molar heat capacity at constant pressure (240 K, Crystal): 213.9 ± 1.4 J/K/mol
- molar heat capacity at constant pressure (250 K, Crystal): 223.2 ± 1.5 J/K/mol
- molar heat capacity at constant pressure (260 K, Crystal): 233.2 ± 1.6 J/K/mol
- molar heat capacity at constant pressure (270 K, Crystal): 243.9 ± 1.6 J/K/mol
- molar heat capacity at constant pressure (280 K, Crystal): 255.5 ± 1.7 J/K/mol
- molar heat capacity at constant pressure (290 K, Crystal): 268 ± 1.7 J/K/mol
- molar heat capacity at constant pressure (300 K, Crystal): 281.5 ± 1.7 J/K/mol
- molar heat capacity at constant pressure (306.75 K, Crystal): 291.3 ± 1.8 J/K/mol
- molar heat capacity at constant pressure (306.75 K, Liquid, Large sample (1 g) DSC): 350 ± 8.6 J/K/mol
- molar heat capacity at constant pressure (310 K, Liquid, Large sample (1 g) DSC): 352 ± 8.6 J/K/mol
- molar heat capacity at constant pressure (320 K, Liquid, Large sample (1 g) DSC): 359.3 ± 8.8 J/K/mol
- molar heat capacity at constant pressure (330 K, Liquid, Large sample (1 g) DSC): 367.5 ± 9 J/K/mol
- molar heat capacity at constant pressure (340 K, Liquid, Large sample (1 g) DSC): 376.8 ± 9.2 J/K/mol
- molar heat capacity at constant pressure (350 K, Liquid, Large sample (1 g) DSC): 387.2 ± 9.5 J/K/mol
- molar heat capacity at constant pressure (360 K, Liquid, Large sample (1 g) DSC): 398.7 ± 9.7 J/K/mol
- molar heat capacity at constant pressure (370 K, Liquid, Large sample (1 g) DSC): 411.2 ± 10 J/K/mol
